Assay results as given in US5210193A, “Piperazine derivatives” (American Cyanamid Company, priority 1990, dated 1993).
Values after ≈ are worked out from the molar mass of the structure shown. Values joined by “and” are separate entries in the source; they are usually repeats but may differ in a detail not shown here. Equal values may be shown once. Where a name gives a salt, the structure may show the parent alone. Read-outs that look alike come from different tables or passages of the source. Values belong to the molecule of their own block, whether it stands above or below them.

Assays:
Assay in all cases: in vitro antibacterial MIC, agar plate dilution
Assay type in all cases: cell-based
[1] = tested on: Staphylococcus aureus K 82-26; settings: 35° C.
Outline: (§1)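 Agar plate dilution on Mueller-Hinton agar, inoculum about 10^4 CFU per spot applied with a Steers replicator. MIC (mcg/ml) is the lowest compound concentration preventing visible growth after 18 h at 35 °C.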

[2] = tested on: Proteus rettgeri IO 83-21; settings: 35° C.
Outline: as §1

[3] = tested on: Morganella morganii CMC 84-37; settings: 18 hours, 35° C., monohydrochloride
Outline: as §1

[4] = tested on: Enterobacter cloacae VGH 84-39; settings: 35° C.
Outline: as §1

[5] = tested on: Staphylococcus aureus CMC 83-131; settings: 35° C.
Outline: as §1

[6] = tested on: Staphylococcus aureus VGH 84-47; settings: 35° C.
Outline: as §1

[7] = tested on: Serratia marcescens K 84-18; settings: 18 hours, 35° C., monohydrochloride
Outline: as §1

[8] = tested on: Providencia stuarti CMC 83-3; settings: 35° C.
Outline: as §1

[9] = tested on: Serratia marcescens MOR 84-41; settings: 35° C.
Outline: as §1

[10] = tested on: Streptococcus faecalis UCI 85-19; settings: 18 hours, 35° C.
Outline: as §1

[11] = tested on: Escherichia coli VGH 84-19; settings: 35° C.
Outline: as §1

[12] = tested on: Escherichia coli ATCC 25922; settings: 35° C.
Outline: as §1

[13] = tested on: Staphylococcus aureus Smith; settings: 18 hours, 35° C., monohydrochloride
Outline: as §1

[14] = tested on: Streptococcus faecalis VGH 84-69; settings: 35° C.
Outline: as §1

[15] = tested on: Streptococcus faecalis CMC 83-120; settings: 35° C.
Outline: as §1

[16] = tested on: Serratia marcescens CMC 83-74; settings: 35° C.
Outline: as §1

[17] = tested on: Klebsiella pneumoniae CMC 84-31; settings: 35° C.
Outline: as §1

[18] = tested on: Streptococcus faecalis UCI 85-30; settings: 35° C.
Outline: as §1

[19] = tested on: Klebsiella pneumoniae IO 83-5; settings: 35° C.
Outline: as §1

[20] = tested on: Morganella morganii CMC 84-38; settings: 35° C.
Outline: as §1

[21] = tested on: Escherichia coli MOR 84-20; settings: 35° C.
Outline: as §1

[22] = tested on: Staphylococcus aureus VGH 84-45; settings: 18 hours, 35° C., monohydrochloride
Outline: as §1

[23] = tested on: Klebsiella pneumoniae MOR 84-24; settings: 35° C.
Outline: as §1

[24] = tested on: Morganella morganii VHG 84-12; settings: Morganella morganii VHG 84-12 (VGH 84-12 for Example 131), 35° C.
Outline: as §1

[25] = tested on: Morganella morganii MOR 84-45; settings: 35° C.
Outline: as §1

[26] = tested on: Escherichia coli CMC 84-50; settings: 35° C.
Outline: as §1

[27] = tested on: Escherichia coli CMC 84-11; settings: 18 hours, 35° C., monohydrochloride
Outline: as §1

[28] = tested on: Enterobacter cloacae MOR 84-30; settings: 35° C.
Outline: as §1

[29] = tested on: Enterobacter cloacae K 84-10; settings: Enterobacter cloacae, K8410, 18 h, 35° C., read-out: MIC
Outline: as §1

[30] = tested on: Pseudomonas aeruginosa CMC 83-20; settings: Pseudomonas aeruginosa, CMC8320, 18 h, 35° C., read-out: MIC
Outline: as §1

[31] = tested on: Staphylococcus aureus ATTC 29213; settings: Staphylococcus aureus, ATTC29213, 18 h, 35° C., read-out: MIC
Outline: as §1

[32] = tested on: Pseudomonas aeruginosa VGH 84-3; settings: Pseudomonas aeruginosa, VGH843, 18 h, 35° C., read-out: MIC
Outline: as §1

[33] = tested on: Pseudomonas aeruginosa K 84-16; settings: Pseudomonas aeruginosa, K8416, 18 h, 35° C., read-out: MIC
Outline: as §1

[34] = tested on: Citrobacter div. K 82-24; settings: Citrobacter, DIV.K8224, 18 h, 35° C., read-out: MIC
Outline: as §1

- MIC ([1]; 18 hours, monohydrochloride): 2 µg/mL
- MIC ([2]; 18 hours, monohydrochloride): 0.5 µg/mL
- MIC [3]: 0.12 µg/mL
- MIC ([4]; 18 hours, monohydrochloride): 0.25 µg/mL
- MIC ([5]; 18 hours, monohydrochloride): 0.25 µg/mL
- MIC ([6]; 18 hours, monohydrochloride): 0.12 µg/mL
- MIC [7]: 0.25 µg/mL
- MIC ([8]; 18 hours, monohydrochloride): 16 µg/mL
- MIC ([9]; 18 hours, monohydrochloride): 0.5 µg/mL
- MIC [10]: 2 µg/mL
- MIC ([11]; 18 hours, monohydrochloride): 0.12 µg/mL
- MIC ([12]; 18 hours, monohydrochloride): 0.03 µg/mL and 0.06 µg/mL
- MIC [13]: 0.03 µg/mL
- MIC ([14]; 18 hours, monohydrochloride): 2 µg/mL
- MIC ([15]; 18 hours, monohydrochloride): 2 µg/mL
- MIC ([16]; 18 hours, monohydrochloride): 16 µg/mL
- MIC ([17]; 18 hours, monohydrochloride): 0.25 µg/mL
- MIC ([18]; 18 hours, monohydrochloride): 4 µg/mL
- MIC ([19]; 18 hours, monohydrochloride): 0.5 µg/mL
- MIC ([20]; 18 hours, monohydrochloride): 0.25 µg/mL
- MIC ([21]; 18 hours, monohydrochloride): 0.12 µg/mL
- MIC [22]: 0.03 µg/mL
- MIC ([23]; 18 hours, monohydrochloride): 0.5 µg/mL
- MIC ([24]; 18 hours, monohydrochloride): 0.5 µg/mL
- MIC ([25]; 18 hours, monohydrochloride): 0.25 µg/mL
- MIC ([26]; 18 hours, monohydrochloride): 0.25 µg/mL
- MIC [27]: 0.03 µg/mL
- MIC ([28]; 18 hours, monohydrochloride): 0.5 µg/mL
SMILES: O=C(O)c1cn(C2CC2)c2cc(N3CCNC(c4ccccn4)C3)c(F)cc2c1=O (centres unmarked) [Example 129, 1-Cyclopropyl-6-fluoro-1,4-dihydro-4-oxo-7-[3-(2-pyridinyl) -1-piperazinyl]-3-quinolinecarboxylic acid, monohydrochloride]

- MIC ([1]; Staphylococcus aureus, K8226, 18 h, read-out: MIC): 0.5 µg/mL (≈ 1.26 µM)
- MIC ([2]; Providencia rettgeri, IO8321, 18 h, read-out: MIC): 0.12 µg/mL (≈ 0.303 µM)
- MIC ([4]; Enterobacter cloacae, VGH8439, 18 h, read-out: MIC): 0.06 µg/mL (≈ 0.151 µM)
- MIC ([5]; Staphylococcus aureus, CMC83131, 18 h, read-out: MIC): 0.25 µg/mL (≈ 0.631 µM)
- MIC ([6]; Staphylococcus aureus, VGH8447, 18 h, read-out: MIC): 0.12 µg/mL (≈ 0.303 µM)
- MIC ([8]; Providencia, CMC833, 18 h, read-out: MIC): 4 µg/mL (≈ 10.1 µM)
- MIC ([9]; Serratia marcescens, MOR8441, 18 h, read-out: MIC): 0.5 µg/mL (≈ 1.26 µM)
- MIC ([11]; Escherichia coli, VGH8419, 18 h, read-out: MIC): 0.015 µg/mL (≈ 0.0378 µM)
- MIC [29]: 0.3 µg/mL (≈ 0.757 µM)
- MIC [30]: 2 µg/mL (≈ 5.05 µM)
- MIC ([12]; Escherichia coli, ATCC25922, 18 h, read-out: MIC): 0.008 µg/mL (≈ 0.0202 µM)
- MIC ([14]; Enterococcus faecalis, VGH8469, 18 h, read-out: MIC): 0.5 µg/mL (≈ 1.26 µM)
- MIC ([15]; Enterococcus faecalis, CMC83120, 18 h, read-out: MIC): 0.2 µg/mL (≈ 0.505 µM)
- MIC ([16]; Serratia marcescens, CMC8374, 18 h, read-out: MIC): 16 µg/mL (≈ 40.4 µM)
- MIC ([17]; Klebsiella pneumoniae, CMC8431, 18 h, read-out: MIC): 0.06 µg/mL (≈ 0.151 µM)
- MIC ([18]; Enterococcus faecalis, UCI8530, 18 h, read-out: MIC): 1 µg/mL (≈ 2.52 µM)
- MIC ([19]; Klebsiella pneumoniae, IO835, 18 h, read-out: MIC): 0.12 µg/mL (≈ 0.303 µM)
- MIC ([20]; Morganella morganii, CMC8438, 18 h, read-out: MIC): 0.06 µg/mL (≈ 0.151 µM)
- MIC ([21]; Escherichia coli, MOR8420, 18 h, read-out: MIC): 0.015 µg/mL (≈ 0.0378 µM)
- MIC ([23]; Klebsiella pneumoniae, MOR8424, 18 h, read-out: MIC): 0.12 µg/mL (≈ 0.303 µM)
- MIC ([24]; Morganella morganii, VHG8412, 18 h, read-out: MIC): 0.5 µg/mL (≈ 1.26 µM)
- MIC ([25]; Morganella morganii, MOR8445, 18 h, read-out: MIC): 0.03 µg/mL (≈ 0.0757 µM)
- MIC [31]: 0.12 µg/mL (≈ 0.303 µM)
- MIC ([26]; Escherichia coli, CMC8450, 18 h, read-out: MIC): 0.03 µg/mL (≈ 0.0757 µM)
- MIC [32]: 8 µg/mL (≈ 20.2 µM)
- MIC ([28]; Enterobacter cloacae, MOR8430, 18 h, read-out: MIC): 0.5 µg/mL (≈ 1.26 µM)
- MIC [33]: 4 µg/mL (≈ 10.1 µM)
- MIC [34]: 0.03 µg/mL (≈ 0.0757 µM)
SMILES: O=C(O)c1cn(C2CC2)c2cc(N3CCNC(c4cc[nH]c4)C3)c(F)cc2c1=O (centres unmarked) [Example 119]
